From US6924283B2, “4-thioxo-4,7-dihydro-thieno[2,3-b]pyridine-5-carbothioamides as antiviral agents” (Pfizer, priority 2001, dated 2005)

Legend:
Type in all cases: biochemical
HCMV polymerase = target: T1, HCMV polymerase (Human cytomegalovirus, UniProt P08546); assay: HCMV polymerase scintillation proximity assay (modified version); settings: modified SPA assay, compounds diluted in 100% DMSO, 4.5 mM DTT
T1 construct: made in house; host or cells: recombinant baculovirus-infected SF-9 cells
Protocol: The HCMV polymerase assay is performed using a scintillation proximity assay (SPA) as described in several references, such as N. D. Cook, et al., Pharmaceutical Manufacturing International, pages 49-53 (1992); K. Takeuchi, Laboratory Practice, September issue (1992); U.S. Pat. No. 4,568,649 (1986); which are incorporated by reference herein. Reactions are performed in 96-well plates. The assay is conducted in 100 μl volume with 5.4 mM HEPES (pH 7.5), 11.7 mM KCl, 4.5 mM MgCl2, 0.36 mg/ml BSA, and 90 nM ^3H-dTTP. Assays are run with and without CHAPS, (3-[(3-cholamidopropyl)-dimethylammonio]-1-propane-sulfonate) at a final concentration of 2 mM. HCMV polymerase is diluted in enzyme dilution buffer containing 50% glycerol, 250 mM NaCl, 10 mM HEPES (pH 7.5), 100 μg/ml BSA, and 0.01% sodium azide. […] Plates are incubated 10 min. at 37° C., then equilibrated to room temperature, and counted on a Packard Topcount. Linear regressions are performed and IC50's are calculated using computer software.
A modified version of the above HCMV polymerase assay is performed as described above, but with the following changes: Compounds are diluted in 100% DMSO until final dilution into assay buffer. […] In Table 1, the term “nd” refers to activity data not determined.

VZV polymerase = VZV polymerase (Varicella-zoster virus, UniProt P09252); assay: VZV polymerase assay (Table 1)
HSV polymerase = HSV polymerase (Human herpesvirus 1, UniProt P04293); assay: HSV polymerase assay (Table 1)
Sequence of HSV polymerase (P04293 whole entry): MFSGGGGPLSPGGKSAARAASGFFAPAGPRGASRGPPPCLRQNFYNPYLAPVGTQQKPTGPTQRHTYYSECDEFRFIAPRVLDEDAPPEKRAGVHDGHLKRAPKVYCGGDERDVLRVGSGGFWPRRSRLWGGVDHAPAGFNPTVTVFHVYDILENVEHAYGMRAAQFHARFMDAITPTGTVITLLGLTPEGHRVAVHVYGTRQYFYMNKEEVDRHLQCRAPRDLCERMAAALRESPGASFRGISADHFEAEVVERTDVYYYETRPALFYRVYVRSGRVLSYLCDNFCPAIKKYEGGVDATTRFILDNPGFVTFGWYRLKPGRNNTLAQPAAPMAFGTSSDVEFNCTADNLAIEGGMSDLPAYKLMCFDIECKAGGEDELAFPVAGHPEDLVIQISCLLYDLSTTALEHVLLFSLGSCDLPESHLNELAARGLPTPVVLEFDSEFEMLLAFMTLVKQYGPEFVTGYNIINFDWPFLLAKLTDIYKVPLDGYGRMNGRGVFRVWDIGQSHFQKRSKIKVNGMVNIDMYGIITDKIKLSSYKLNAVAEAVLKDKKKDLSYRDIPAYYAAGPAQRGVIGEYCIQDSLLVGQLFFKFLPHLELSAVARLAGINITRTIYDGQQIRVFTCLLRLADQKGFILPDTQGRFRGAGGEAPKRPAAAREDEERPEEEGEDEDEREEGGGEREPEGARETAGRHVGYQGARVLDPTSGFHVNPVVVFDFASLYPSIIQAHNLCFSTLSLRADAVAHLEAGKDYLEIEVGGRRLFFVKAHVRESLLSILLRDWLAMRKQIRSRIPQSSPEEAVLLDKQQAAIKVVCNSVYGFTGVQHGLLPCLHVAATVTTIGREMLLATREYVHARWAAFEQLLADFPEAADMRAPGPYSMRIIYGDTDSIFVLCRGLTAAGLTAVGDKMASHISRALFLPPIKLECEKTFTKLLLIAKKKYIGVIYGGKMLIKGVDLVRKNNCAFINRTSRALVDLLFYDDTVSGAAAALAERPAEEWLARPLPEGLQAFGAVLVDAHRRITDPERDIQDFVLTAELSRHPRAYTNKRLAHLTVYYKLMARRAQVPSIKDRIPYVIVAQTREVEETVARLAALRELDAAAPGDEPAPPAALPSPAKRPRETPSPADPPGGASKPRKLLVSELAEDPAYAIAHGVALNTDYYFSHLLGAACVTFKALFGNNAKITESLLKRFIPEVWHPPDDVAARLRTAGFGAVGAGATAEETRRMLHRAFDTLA

T1 sequence (P08546 whole entry): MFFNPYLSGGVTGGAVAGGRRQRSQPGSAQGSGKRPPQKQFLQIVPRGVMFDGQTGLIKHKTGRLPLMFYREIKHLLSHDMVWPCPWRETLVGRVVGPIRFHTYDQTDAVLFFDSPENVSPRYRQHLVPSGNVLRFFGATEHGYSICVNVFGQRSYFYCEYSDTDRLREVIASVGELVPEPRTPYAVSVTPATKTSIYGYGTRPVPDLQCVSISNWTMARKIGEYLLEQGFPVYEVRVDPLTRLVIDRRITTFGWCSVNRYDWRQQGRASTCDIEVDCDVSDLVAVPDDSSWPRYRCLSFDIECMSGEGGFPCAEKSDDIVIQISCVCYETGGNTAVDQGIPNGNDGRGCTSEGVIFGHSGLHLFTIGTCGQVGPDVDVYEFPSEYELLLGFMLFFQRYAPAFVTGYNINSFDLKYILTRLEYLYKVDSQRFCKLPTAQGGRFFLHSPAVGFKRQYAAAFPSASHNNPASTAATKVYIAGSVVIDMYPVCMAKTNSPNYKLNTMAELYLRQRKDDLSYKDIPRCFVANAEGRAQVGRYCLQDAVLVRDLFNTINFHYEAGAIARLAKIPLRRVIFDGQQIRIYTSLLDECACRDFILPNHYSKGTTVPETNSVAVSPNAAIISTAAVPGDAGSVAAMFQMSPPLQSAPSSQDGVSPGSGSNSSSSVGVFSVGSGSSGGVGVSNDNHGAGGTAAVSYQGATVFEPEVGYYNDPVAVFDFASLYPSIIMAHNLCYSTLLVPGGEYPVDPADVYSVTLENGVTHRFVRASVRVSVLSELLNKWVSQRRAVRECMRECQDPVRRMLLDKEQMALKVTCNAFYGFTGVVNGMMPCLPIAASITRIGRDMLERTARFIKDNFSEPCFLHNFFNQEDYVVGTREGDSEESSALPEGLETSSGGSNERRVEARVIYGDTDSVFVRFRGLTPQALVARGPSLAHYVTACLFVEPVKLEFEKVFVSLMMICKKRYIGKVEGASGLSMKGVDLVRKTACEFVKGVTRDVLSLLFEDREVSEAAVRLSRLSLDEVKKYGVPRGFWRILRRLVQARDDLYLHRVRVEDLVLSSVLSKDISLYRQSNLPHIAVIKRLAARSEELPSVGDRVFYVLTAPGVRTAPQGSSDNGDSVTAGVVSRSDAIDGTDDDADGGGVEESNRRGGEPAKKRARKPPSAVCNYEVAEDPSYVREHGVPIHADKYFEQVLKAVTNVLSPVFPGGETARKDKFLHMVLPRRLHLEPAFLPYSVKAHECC
Sequence of VZV polymerase (P09252 whole entry): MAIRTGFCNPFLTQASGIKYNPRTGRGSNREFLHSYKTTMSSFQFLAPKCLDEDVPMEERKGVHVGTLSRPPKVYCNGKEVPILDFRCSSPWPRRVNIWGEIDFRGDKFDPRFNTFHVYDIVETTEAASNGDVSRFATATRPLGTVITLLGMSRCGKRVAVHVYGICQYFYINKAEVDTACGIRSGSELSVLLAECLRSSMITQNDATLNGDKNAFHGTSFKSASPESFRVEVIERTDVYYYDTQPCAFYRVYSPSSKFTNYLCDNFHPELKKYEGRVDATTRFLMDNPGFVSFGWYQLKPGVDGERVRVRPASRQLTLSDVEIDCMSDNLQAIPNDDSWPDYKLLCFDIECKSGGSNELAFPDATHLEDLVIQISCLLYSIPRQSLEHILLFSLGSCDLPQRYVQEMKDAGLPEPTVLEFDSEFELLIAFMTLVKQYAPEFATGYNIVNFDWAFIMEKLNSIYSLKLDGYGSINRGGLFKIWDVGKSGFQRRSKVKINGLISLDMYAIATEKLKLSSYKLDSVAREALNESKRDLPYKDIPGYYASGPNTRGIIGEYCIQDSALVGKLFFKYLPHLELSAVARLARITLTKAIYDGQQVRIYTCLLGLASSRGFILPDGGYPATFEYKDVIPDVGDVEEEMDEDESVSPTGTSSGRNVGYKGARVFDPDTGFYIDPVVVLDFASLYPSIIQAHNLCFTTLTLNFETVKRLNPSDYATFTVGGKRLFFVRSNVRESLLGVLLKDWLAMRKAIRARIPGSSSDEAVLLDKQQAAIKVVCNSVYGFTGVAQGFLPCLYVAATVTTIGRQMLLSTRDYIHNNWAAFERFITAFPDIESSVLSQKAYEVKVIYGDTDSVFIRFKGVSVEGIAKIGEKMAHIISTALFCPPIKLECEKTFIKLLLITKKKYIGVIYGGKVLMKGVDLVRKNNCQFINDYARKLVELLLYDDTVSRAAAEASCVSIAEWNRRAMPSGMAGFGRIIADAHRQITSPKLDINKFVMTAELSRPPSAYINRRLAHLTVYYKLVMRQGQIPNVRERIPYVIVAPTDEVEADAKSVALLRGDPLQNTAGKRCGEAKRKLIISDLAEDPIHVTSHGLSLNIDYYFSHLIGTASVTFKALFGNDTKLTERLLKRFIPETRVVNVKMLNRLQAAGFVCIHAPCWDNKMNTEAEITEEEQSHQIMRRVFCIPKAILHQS

`Cn1cc(C(=S)NCc2ccc(Cl)cc2)c(=S)c2cc(CN3CCOCC3)sc21` [Example 1, N-(4-Chlorobenzyl)-7-methyl-2-(4-morpholinylmethyl)-4-thioxo-4,7-dihydrothieno[2,3-b]pyridine-5-carbothioamide] was tested, and the IC50 (HCMV polymerase) was 910 nM, the IC50 (VZV polymerase) was 130 nM and the IC50 (HSV polymerase) was 360 nM.
